We go through 13 molecules from patent US11976083B2, “Inhibitors of peptidylarginine deiminases” (Gilead Sciences, Inc., priority 2020, dated 2024).

The target of this assay is T1, human PAD4 (Homo sapiens, UniProt Q9UM07).
T1 construct: human PAD4 (NM_012387), A2-P663, was PCR amplified; His-SUMO (N, cleaved yes); made in house; host or cells: E. coli BL21(DE3)
In words: In vitro PAD4 BAEE biochemical assay. Particulars: BAEE substrate 3 mM, 5 nM PAD4, 2 mM calcium chloride; geometric mean of multiple experiments. Put shortly: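 Recombinant PAD4 (5 nM final) with 2 mM CaCl2 was preincubated with compound for 30 min at 25 °C in MOPS pH 7.6 buffer with DTT, then reacted with 3 mM BAEE for 2 h at 25 °C. Released ammonia was detected fluorimetrically with o-phthalaldehyde/DTT; IC50 from four-parameter fit, geometric mean of experiments.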

As usually defined, the IC50 is the concentration that gives 50% inhibition.

T1 sequence (Q9UM07 2-663): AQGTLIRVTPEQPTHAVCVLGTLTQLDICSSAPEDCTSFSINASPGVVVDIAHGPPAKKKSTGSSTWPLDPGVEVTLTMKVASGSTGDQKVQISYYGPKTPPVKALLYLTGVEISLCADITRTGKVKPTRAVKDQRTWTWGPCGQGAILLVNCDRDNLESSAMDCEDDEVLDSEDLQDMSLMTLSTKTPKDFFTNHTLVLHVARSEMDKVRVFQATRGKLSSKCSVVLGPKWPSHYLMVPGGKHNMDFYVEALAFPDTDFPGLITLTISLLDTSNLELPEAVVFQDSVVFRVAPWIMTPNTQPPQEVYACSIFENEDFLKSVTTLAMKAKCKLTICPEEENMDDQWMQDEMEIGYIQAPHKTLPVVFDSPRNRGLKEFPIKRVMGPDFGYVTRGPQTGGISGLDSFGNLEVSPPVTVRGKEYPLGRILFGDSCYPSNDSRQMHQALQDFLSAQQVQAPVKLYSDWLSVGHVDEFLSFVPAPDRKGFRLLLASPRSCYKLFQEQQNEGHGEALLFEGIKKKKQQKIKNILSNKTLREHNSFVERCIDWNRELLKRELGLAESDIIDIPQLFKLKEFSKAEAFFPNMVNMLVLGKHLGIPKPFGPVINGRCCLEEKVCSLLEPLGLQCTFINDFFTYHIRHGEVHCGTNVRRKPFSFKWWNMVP

Take `COc1cc(C(=O)N2[C@H]3CC[C@@H]2[C@H](N)C3)cc2nc(-c3cc4ccc5nc4n3CCCCCCN(C)C(=O)N[C@@H]5C)c(C)n12` [Example 212, (11~{R})-17-[7-[(1~{R},2~{R},4~{S})-2-amino-7-azabicyclo[2.2.1]heptane-7-carbonyl]-5-methoxy-3-methyl-imidazo[1,2-a]pyridin-2-yl]-8,11-dimethyl-1,8,10,19-tetrazatricyclo[10.5.2.0^{15,18}]nonadeca-12(19),13,15(18),16-tetraen-9-one]: the IC50 turned out to be 22 nM. Consider `COc1cc(C(=O)N2CC[C@@H](OC)[C@@H](N)C2)cc2nc(-c3cc4ccc5nc4n3C[C@H]3C[C@H]3CCCC(C)(C)C(=O)N[C@@H]5C)n(C)c12` [Example 366, (3~{S),5~{R},12~{R})-18-[5-[(3~{S},4~{R})-3-amino-4-methoxy-piperidine-1-carbonyl]-7-methoxy-1-methyl-benzimidazol-2-yl]-9,9,12-trimethyl-1,11,20-triazatetracyclo[11.5.2.0^{3,5}.0^{16,19}] icosa-13(20),14,16(19),17-tetraen-10-one], for which the 50% inhibitory concentration (IC50) was 120 nM. Take `COc1cc(C(=O)N2C[C@H](N)[C@@H]3CC[C@H]2C3)cc2nc(-c3cc4ccc5nc4n3CCCCCOC(C)(C)C(=O)N[C@@H]5C)n(C3CC3)c12` [Example 905, (11~{R})-17-[5-[(1~{S},4~{R}, 5~{R})-4-amino-2-azabicyclo [3.2.1]octane-2-carbonyl]-1-cyclopropyl-7-methoxy-benzimidazol-2-yl]-8,8,11-trimethyl-7-oxa-1,10,19-triazatricyclo[10.5.2.0^{15,18}] nonadeca-12(19), 13,15(18),16-tetraen-9-one]: the IC50 was 72 nM. As to `C[C@H]1NC(=O)[C@@H]2C[C@@H]2C/C=C\CCn2c(-c3nc4cc(C(=O)N[C@H]5CNCC[C@@H]5F)c(F)cc4n3C)cc3ccc1nc32` [Example 521, 6-fluoro-~{N}-[(3~ {S},4~{S})-4-fluoro-3-piperidyl]-1-methyl-2-[(2~{R},5~{R},7~ {S},9~{Z})-2-methyl-4-oxo-3,13,19-triazatetracyclo[11.5.2.0^ {5,7}.0^{16,20}]icosa-1(19),9,14,16(20), 17-pentaen-14-yl] benzimidazole-5-carboxamide], the half-maximal inhibitory concentration (IC50) is 76 nM. In the case of `COc1cc(C(=O)N2CC[C@H]3OCCN[C@H]3C2)cc2nc(-c3cc4ccc5cc4n3CCCCCCC(C)(C)C(=O)N[C@@H]5C)n(C)c12` [Example 190, (11~{R})-17-[5-[(4~{a}~{S},8~{a}~{R})-2,3,4,4~{a},5,7,8,8~{a}-octahydropyrido[4,3-b][1,4]oxazine-6-carbonyl]-7-methoxy-1-methyl-benzimidazol-2-yl]-8,8,11-trimethyl-1,10-diazatricyclo[10.5.2.0^{15,18}]nonadeca-12(19),13,15(18),16-tetraen-9-one], the 50% inhibitory concentration (IC50) was found to be 94 nM. For the molecule `COc1cc(C(=O)N2C[C@H](N)C[C@@H](F)C2)cc2nc(-c3cc4ccc5nc4n3CC(F)(F)CCCC[C@@](C)(C(F)(F)F)C(=O)N[C@@H]5C)n(C)c12` [Example 728, (8~{R},11~{R})-17-[5-[(3~ {R},5~{R})-3-amino-5-fluoro-piperidine-1-carbonyl]-7-methoxy-1-methyl-benzimidazol-2-yl]-3,3-difluoro-8,11-dimethyl-8-(trifluoromethyl)-1,10,19-triazatricyclo[10.5.2.0^ {15,18}]nonadeca-12(19),13,15(18),16-tetraen-9-one], the IC50 is 75 nM. For the molecule `C[C@H]1NC(=O)c2nccnc2CCCCCn2c(-c3nc4cc(C(=O)N5C[C@H](N)[C@@H]6CC[C@H]5C6)cc(F)c4n3C3CC3)cc3ccc1nc32` [Example 485, (2~{R})-17-[5-[(1~{S),4~{R},5~{R})-4-amino-2-azabicyclo[3.2.1]octane-2-carbonyl]-1-cyclopropyl-7-fluoro-benzimidazol-2-yl]-2-methyl-3,6,9,16,22-pentazatetracyclo[14.5.2.0^{5,10}.0^{19, 23}]tricosa-1(22),5(10),6,8,17,19(23),20-heptaen-4-one], the IC50 worked out at 29 nM. For `CO[C@@H]1CCN(C(=O)c2cc(F)c3c(c2)nc(-c2cc4ccc5nc4n2CCCCCC[C@H](c2cccc(Cl)n2)C(=O)N[C@@H]5C)n3C2CC2)C[C@@H]1N` [Example 872, (8~{R},11~{R})-17-[5-[(3~ {S},4~{R})-3-amino-4-methoxy-piperidine-1-carbonyl]-1-cyclopropyl-7-fluoro-benzimidazol-2-yl]-8-(6-chloro-2-pyridyl)-11-methyl-1,10,19-triazatricyclo[10.5.2.0^ {15,18}]nonadeca-12(19), 13,15(18),16-tetraen-9-one], the 50% inhibitory concentration (IC50) stood at 90 nM. Consider `COc1cc(C(=O)N2C[C@H](N)[C@@H]3CC[C@H]2C3)cc2nc(-c3cc4ccc5nc4n3CC(F)(F)CCCCC(C)(C)C(=O)N[C@@H]5C)n(C)c12` [Example 943, (11~{R})-17-[5-[(1~{S},4~{R}, 5~{R})-4-amino-2-azabicyclo [3.2.1]octane-2-carbonyl]-7-methoxy-1-methyl-benzimidazol-2-yl]-3,3-difluoro-8,8,11-trimethyl-1,10,19-triazatricyclo[10.5.2.0^{15,18}] nonadeca-12(19), 13,15(18),16-tetraen-9-one], for which the IC50 is 48 nM.

As for `COc1cc(C(=O)N2CCC[C@@H](N)C2)cc2nc(-c3cc4ccc5nc4n3CCCCCCCCCC(=O)N[C@@H]5C)c(C)n12` [Example 284, (13~{R})-19-[7-[(3~{R})-3-aminopiperidine-1-carbonyl]-5-methoxy-3-methyl-imidazo[1,2-a]pyridin-2-yl]-13-methyl-1,12,21-triazatricyclo[12.5.2.0^{17,20}]henicosa-14(21),15,17(20),18-tetraen-11-one], the 50% inhibitory concentration (IC50) amounted to 52 nM. In the case of `COc1cc(C(=O)N[C@H]2CNCC[C@H]2OC)cc2nc(-c3cc4ccc5nc4n3CCCCCCC(C)(C)C(=O)N[C@@H]5C)n(C)c12` [Example 82, 7-methoxy-~{N}-[(3~{S},4~{R})-4-methoxy-3-piperidyl]-1-methyl-2-[(11~{R})-8,8,11-trimethyl-9-oxo-1,10,19-triazatricyclo[10.5.2.0^{15,18}]nonadeca-12(19),13,15(18),16-tetraen-17-yl]benzimidazole-5-carboxamide], the IC50 amounted to 8110 nM. As to `COc1cc(C(=O)N2C[C@H]3OC[C@@H]2[C@@H]3N)cc2nc(-c3cc4ccc5nc4n3CCCCCCC(C)(C)C(=O)N[C@@H]5C)n(C)c12` [Example 708, (11~{R})-17-[5-[(1~{R},4~{S), 7~{S})-7-amino-2-oxa-5-azabicyclo[2.2.1]heptane-5-carbonyl]-7-methoxy-1-methyl-benzimidazol-2-yl]-8,8,11-trimethyl-1,10,19-triazatricyclo[10.5.2.0^ {15,18}]nonadeca-12(19),13,15(18),16-tetraen-9-one], the IC50 was found to be 91 nM. For `COc1cc(C(=O)N2CCC[C@@H](N)C2)cc2nc(-c3cc4ccc5nc4n3CCCCC[C@@H]3C[C@H]3C(=O)N[C@@H]5C)n(C)c12` [Example 157, (2~{R},5~{R},7~{R})-14-[5-[(3~{R})-3-aminopiperidine-1-carbonyl]-7-methoxy-1-methyl-benzimidazol-2-yl]-2-methyl-3,13,19-triazatetracyclo[11.5.2.0^{5,7}.0^{16,20}] icosa-1(19),14,16(20),17-tetraen-4-one] the value was 36 nM.
